Data taken from patent US6706663B2, “Herbicidal 3-heterocyclic substituted benzisothiazole and benzisoxazole compounds” (Wyeth, priority 2000, dated 2004).

Key:
[1] = test system: IPOHE (Ipomoea hederacea); assay: Postemergence herbicidal evaluation; format: in vivo, (L.) Jacq.; settings: rate 0.0620 kg/ha
In short: (§1)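 Visual 0–9 injury scores versus control plants, covering stand, vigour, malformation, size, chlorosis and general appearance, taken four to five weeks post-spray and averaged over replicate tests. Plants were sprayed at roughly two weeks old and held on greenhouse benches.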

SETVI (Setaria viridis) [2] = assay: Postemergence herbicidal evaluation; format: in vivo, (L.) Beau; settings: rate 0.0620 kg/ha
In short: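 Seedlings grown about two weeks were sprayed with compound in 50/50 acetone/water containing 0.5% TWEEN 20, at about 0.0040 to 1.000 kg/ha via nozzle at 40 psi. Plants were kept under greenhouse conditions and visually rated on a 0-9 scale versus control four to five weeks after treatment; replicate tests averaged.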

[3] = test system: TRZAWR (Wheat, Winter, cv Riband); assay: Postemergence herbicidal evaluation; format: in vivo, Triticum aestivum; settings: rate 0.0620 kg/ha
In short: as §1

[4] = test system: ECHCG (Echinochloa crus-galli); assay: Preemergence herbicidal evaluation; format: in vivo, (L.) Beau; settings: Rate 0.2500 kg/ha; preemergence; rated 4-5 weeks after treatment
In short: (§2)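 Rating 0–9, visual, vs control; 4–5 wk after spraying seeded cups with compound in aq. acetone; conventional greenhouse care.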

SETVI (Setaria viridis) [5] = assay: Preemergence herbicidal evaluation; format: in vivo, (L.) Beau; settings: Rate 0.2500 kg/ha; preemergence; rated 4-5 weeks after treatment
In short: as §2

[6] = test system: GLXMAW (Soybean, Williams); assay: Preemergence herbicidal evaluation; format: in vivo, Glycine max, (L.) Merr. cv Williams; settings: Rate 0.2500 kg/ha; preemergence; rated 4-5 weeks after treatment
ZEAMX (Corn, Field) = assay: Preemergence herbicidal evaluation; format: in vivo, Zea mays, L.; settings: Rate 0.2500 kg/ha; preemergence; rated 4-5 weeks after treatment
[7] = test system: ECHORC (Echinochloa oryzoides); assay: Flooded paddy, preemergence weed control; format: in vivo, Echinochloa oryzoides (Ard.) Fritsch.; settings: rate 0.1250 kg/ha, rated 3-4 weeks after treatment, 0-9 rating scale
In short: (§3)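 Scoring used a 0-9 visual scale relative to control. Before that, seeds or propagules were planted shallowly in silt loam and flooded to 1.5–3 cm, a depth maintained throughout, with greenhouse care during the test.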

CYPIR (Cyperus iria) [8] = assay: Flooded paddy, preemergence weed control; format: in vivo; settings: rate 0.1250 kg/ha, rated 3-4 weeks after treatment, 0-9 rating scale
In short: as §3

[9] = test system: MOOVA (Monochoria vaginalis); assay: Flooded paddy, preemergence weed control; format: in vivo, Presl.; settings: rate 0.1250 kg/ha, rated 3-4 weeks after treatment, 0-9 rating scale
In short: as §3

[10] = test system: ECHORC (Echinochloa oryzoides); assay: Flooded paddy, postemergence weed control; format: in vivo, Echinochloa oryzoides (Ard.) Fritsch.; settings: 0.1250 kg/ha into flood water; postemergence weeds; rated 3-4 weeks after treatment
In short: (§4)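 Herbicidal effect was judged visually against a control on a 0-9 scale covering stand, vigor, malformation, size and chlorosis, three to four weeks after compound was applied into paddy flood water at about 0.0320 to 0.2500 kg/ha.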

CYPIR (Cyperus iria) [11] = assay: Flooded paddy, postemergence weed control; format: in vivo; settings: 0.1250 kg/ha into flood water; postemergence weeds; rated 3-4 weeks after treatment
Text: Results of herbicide evaluation are expressed on a rating scale (0-9). The scale is based upon a visual observation of plant stand, vigor, malformation, size, chlorosis and overall plant appearance as compared with a control.
Plastic containers containing weeds which are 3 to 5 cm tall and rice seedlings at the 1.5 to 2.5 leaf stage are flooded with water. The water is maintained at 1.5 to 3 cm above the soil surface for the duration of the experiment. Test compounds are applied as aqueous/acetone mixtures 50/50 v/v directly into the flood water to provide the equivalent of about 0.0320 to 0.2500 kg/ha of active ingredient. The treated containers are placed on greenhouse benches and cared for in accordance with conventional greenhouse procedures. Three to four weeks after treatment, the test is terminated and each container is examined and herbicidal effect rated according to the rating system provided in Example 87. The compounds evaluated are identified in Example 87 and plant species used are identified in Example 89.

[12] = test system: CYPSE (Cyperus serotinus); assay: Flooded paddy, postemergence weed control; format: in vivo, Rottb.; settings: 0.1250 kg/ha into flood water; postemergence weeds; rated 3-4 weeks after treatment
In short: as §4

[13] = test system: MOOVA (Monochoria vaginalis); assay: Flooded paddy, postemergence weed control; format: in vivo, Presl.; settings: 0.1250 kg/ha into flood water; postemergence weeds; rated 3-4 weeks after treatment
In short: as §4

[14] = test system: SAGPY (Sagittaria pygmaea); assay: Flooded paddy, postemergence weed control; format: in vivo, L.; settings: 0.1250 kg/ha into flood water; postemergence weeds; rated 3-4 weeks after treatment
In short: as §4

ORYSAT (Rice, Tebonnet) = assay: Flooded paddy, post-transplant and postemergence rice tolerance; format: in vivo, Oryza sativa, (L.) Tebonnet; settings: 0.1250 kg/ha into flood water; post-transplant rice; rated 3-4 weeks after treatment
In short: as §4

Compound: Cn1c(C(F)(F)F)cc(=O)n(-c2ccc3snc(-c4ncccn4)c3c2)c1=O [Compound 12, 1-methyl-3-[3-(2-pyrimidinyl)-1,2-benzisothiazol-5-yl]-6-(trifluoromethyl)uracil]
- Postemergence herbicidal rating, IPOHE [1]: 9.0
- Postemergence herbicidal rating, SETVI (SETVI (Setaria viridis) [2]): 9.0
- Postemergence herbicidal rating, TRZAWR [3]: 6.0
- ECHCG preemergence herbicidal rating [4]: 9.0
- SETVI preemergence herbicidal rating (SETVI (Setaria viridis) [5]): 9.0
- GLXMAW preemergence herbicidal rating [6]: 9.0
- ZEAMX preemergence herbicidal rating (ZEAMX (Corn, Field)): 8.5
- herbicidal rating, ECHORC [7]: 8.7
- herbicidal rating, CYPIR (CYPIR (Cyperus iria) [8]): 9.0
- herbicidal rating, MOOVA [9]: 9.0
- herbicide rating (0-9) ECHORC [10]: 1.0
- herbicide rating (0-9) CYPIR (CYPIR (Cyperus iria) [11]): 9.0
- herbicide rating (0-9) CYPSE [12]: 0.0
- herbicide rating (0-9) MOOVA [13]: 2.0
- herbicide rating (0-9) SAGPY [14]: 0.0
- herbicide rating (0-9) ORYSAT (rice tolerance) (ORYSAT (Rice, Tebonnet)): 2.0
